Data reported in ChEMBL document CHEMBL4507290 (2021).

Assays:
[1] = biological target: 5-hydroxytryptamine receptor 1D (Homo sapiens) (UniProt P28221); conditions: Compound concentration 10.0 uM
[2] = biological target: Serine/threonine-protein kinase MARK1 (Homo sapiens) (UniProt Q9P0L2); conditions: Compound concentration 1000.0 nM
[3] = biological target: Mitogen-activated protein kinase kinase kinase kinase 3 (Homo sapiens) (UniProt Q8IVH8); conditions: Compound concentration 1000.0 nM
[4] = biological target: Alpha-2B adrenergic receptor (Homo sapiens) (UniProt P18089); conditions: Compound concentration 10.0 uM
[5] = biological target: 5-hydroxytryptamine receptor 1B (Homo sapiens) (UniProt P28222); conditions: Compound concentration 10.0 uM
[6] = biological target: Cyclin-dependent kinase-like 3 (Homo sapiens) (UniProt Q8IVW4); conditions: Compound concentration 1000.0 nM
[7] = biological target: Platelet-derived growth factor receptor beta (Homo sapiens) (UniProt P09619); conditions: Compound concentration 1000.0 nM
[8] = biological target: Serine/threonine-protein kinase Nek10 (Homo sapiens) (UniProt Q6ZWH5); conditions: Compound concentration 1000.0 nM
[9] = biological target: Mitogen-activated protein kinase kinase kinase 4 (Homo sapiens) (UniProt Q9Y6R4); conditions: Compound concentration 1000.0 nM
[10] = biological target: Serine/threonine-protein kinase 17B (Homo sapiens) (UniProt O94768); conditions: Compound concentration 1000.0 nM
[11] = biological target: Mitogen-activated protein kinase kinase kinase 10 (Homo sapiens) (UniProt Q02779); conditions: Compound concentration 1000.0 nM
[12] = biological target: Receptor-interacting serine/threonine-protein kinase 1 (Homo sapiens) (UniProt Q13546); conditions: Compound concentration 1000.0 nM
[13] = system: Receptor-type tyrosine-protein kinase FLT3 (Homo sapiens), P36888 [D835Y]; conditions: Compound concentration 1000.0 nM
[14] = biological target: Tyrosine-protein kinase ITK/TSK (Homo sapiens) (UniProt Q08881); conditions: Compound concentration 1000.0 nM
[15] = biological target: Phosphatidylinositol 4-phosphate 3-kinase C2 domain-containing subunit beta (Homo sapiens) (UniProt O00750); conditions: Compound concentration 1000.0 nM
[16] = biological target: Serine/threonine-protein kinase Nek6 (Homo sapiens) (UniProt Q9HC98); conditions: Compound concentration 1000.0 nM
[17] = biological target: Cyclin-dependent kinase 16 (Homo sapiens) (UniProt Q00536); conditions: Compound concentration 1000.0 nM
[18] = system: Epidermal growth factor receptor (Homo sapiens), P00533 [G719S]; conditions: Compound concentration 1000.0 nM
[19] = system: Leucine-rich repeat serine/threonine-protein kinase 2 (Homo sapiens), Q5S007 [G2019S]; conditions: Compound concentration 1000.0 nM
[20] = system: Receptor-type tyrosine-protein kinase FLT3 (Homo sapiens), P36888 [N841I]; conditions: Compound concentration 1000.0 nM
[21] = biological target: Rho-associated protein kinase 2 (Homo sapiens) (UniProt O75116); conditions: Compound concentration 1000.0 nM
[22] = biological target: Tyrosine-protein kinase ABL2 (Homo sapiens) (UniProt P42684); conditions: Compound concentration 1000.0 nM
[23] = biological target: Mitogen-activated protein kinase 11 (Homo sapiens) (UniProt Q15759); conditions: Compound concentration 1000.0 nM
[24] = biological target: SRSF protein kinase 3 (Homo sapiens) (UniProt Q9UPE1); conditions: Compound concentration 1000.0 nM
[25] = biological target: cGMP-dependent protein kinase 1 (Homo sapiens) (UniProt Q13976); conditions: Compound concentration 1000.0 nM
[26] = biological target: Interleukin-1 receptor-associated kinase 4 (Homo sapiens) (UniProt Q9NWZ3); conditions: Compound concentration 1000.0 nM
[27] = biological target: Sodium-dependent serotonin transporter (Homo sapiens) (UniProt P31645); conditions: Compound concentration 10.0 uM
[28] = biological target: Non-receptor tyrosine-protein kinase TYK2 (Homo sapiens) (UniProt P29597); conditions: Compound concentration 1000.0 nM
[29] = system: Epidermal growth factor receptor (Homo sapiens), P00533 [L858R]; conditions: Compound concentration 1000.0 nM
[30] = biological target: Ephrin type-A receptor 1 (Homo sapiens) (UniProt P21709); conditions: Compound concentration 1000.0 nM
[31] = biological target: Mitogen-activated protein kinase kinase kinase 9 (Homo sapiens) (UniProt P80192); conditions: Compound concentration 1000.0 nM
[32] = system: Epidermal growth factor receptor (Homo sapiens), P00533 [G719C]; conditions: Compound concentration 1000.0 nM
[33] = biological target: Serine/threonine-protein kinase TAO1 (Homo sapiens) (UniProt Q7L7X3); conditions: Compound concentration 1000.0 nM
[34] = biological target: Receptor-interacting serine/threonine-protein kinase 2 (Homo sapiens) (UniProt O43353); conditions: Compound concentration 1000.0 nM
[35] = biological target: Protein kinase C delta type (Homo sapiens) (UniProt Q05655); conditions: Compound concentration 1000.0 nM
[36] = biological target: Serine/threonine-protein kinase PAK 1 (Homo sapiens) (UniProt Q13153); conditions: Compound concentration 1000.0 nM
[37] = system: Mast/stem cell growth factor receptor Kit (Homo sapiens), P10721 [A829P]; conditions: Compound concentration 1000.0 nM
[38] = biological target: Dual specificity mitogen-activated protein kinase kinase 6 (Homo sapiens) (UniProt P52564); conditions: Compound concentration 1000.0 nM
[39] = biological target: Insulin receptor (Homo sapiens) (UniProt P06213); conditions: Compound concentration 1000.0 nM
[40] = biological target: Serine/threonine-protein kinase 38 (Homo sapiens) (UniProt Q15208); conditions: Compound concentration 1000.0 nM
[41] = biological target: Calcium/calmodulin-dependent protein kinase type 1B (Homo sapiens) (UniProt Q6P2M8); conditions: Compound concentration 1000.0 nM
[42] = biological target: Serine/threonine-protein kinase PLK2 (Homo sapiens) (UniProt Q9NYY3); conditions: Compound concentration 1000.0 nM
[43] = biological target: Cyclin-dependent kinase 11A (Homo sapiens) (UniProt Q9UQ88); conditions: Compound concentration 1000.0 nM
[44] = biological target: Vascular endothelial growth factor receptor 2 (Homo sapiens) (UniProt P35968); conditions: Compound concentration 1000.0 nM
[45] = biological target: Serine/threonine-protein kinase NLK (Homo sapiens) (UniProt Q9UBE8); conditions: Compound concentration 1000.0 nM

Chain of Receptor-interacting serine/threonine-protein kinase 1 (Homo sapiens) (Q13546 whole entry): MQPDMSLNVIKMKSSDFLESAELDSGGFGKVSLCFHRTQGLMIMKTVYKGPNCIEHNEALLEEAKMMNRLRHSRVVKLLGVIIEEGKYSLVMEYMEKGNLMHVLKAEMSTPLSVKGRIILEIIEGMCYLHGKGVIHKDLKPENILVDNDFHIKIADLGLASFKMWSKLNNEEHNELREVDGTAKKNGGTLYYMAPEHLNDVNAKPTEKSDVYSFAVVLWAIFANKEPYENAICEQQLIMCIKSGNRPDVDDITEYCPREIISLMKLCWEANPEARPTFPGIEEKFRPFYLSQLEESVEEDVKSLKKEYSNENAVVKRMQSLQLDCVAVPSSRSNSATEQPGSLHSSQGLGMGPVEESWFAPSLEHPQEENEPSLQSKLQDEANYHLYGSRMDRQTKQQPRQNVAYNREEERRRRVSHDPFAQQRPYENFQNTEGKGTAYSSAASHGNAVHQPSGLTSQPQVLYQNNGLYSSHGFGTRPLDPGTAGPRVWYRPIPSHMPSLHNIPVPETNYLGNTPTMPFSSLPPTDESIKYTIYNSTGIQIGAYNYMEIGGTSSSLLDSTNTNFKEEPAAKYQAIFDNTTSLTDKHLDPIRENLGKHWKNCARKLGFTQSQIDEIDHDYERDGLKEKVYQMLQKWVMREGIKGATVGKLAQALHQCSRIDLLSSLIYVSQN
Chain of Serine/threonine-protein kinase Nek10 (Homo sapiens) (Q6ZWH5 whole entry): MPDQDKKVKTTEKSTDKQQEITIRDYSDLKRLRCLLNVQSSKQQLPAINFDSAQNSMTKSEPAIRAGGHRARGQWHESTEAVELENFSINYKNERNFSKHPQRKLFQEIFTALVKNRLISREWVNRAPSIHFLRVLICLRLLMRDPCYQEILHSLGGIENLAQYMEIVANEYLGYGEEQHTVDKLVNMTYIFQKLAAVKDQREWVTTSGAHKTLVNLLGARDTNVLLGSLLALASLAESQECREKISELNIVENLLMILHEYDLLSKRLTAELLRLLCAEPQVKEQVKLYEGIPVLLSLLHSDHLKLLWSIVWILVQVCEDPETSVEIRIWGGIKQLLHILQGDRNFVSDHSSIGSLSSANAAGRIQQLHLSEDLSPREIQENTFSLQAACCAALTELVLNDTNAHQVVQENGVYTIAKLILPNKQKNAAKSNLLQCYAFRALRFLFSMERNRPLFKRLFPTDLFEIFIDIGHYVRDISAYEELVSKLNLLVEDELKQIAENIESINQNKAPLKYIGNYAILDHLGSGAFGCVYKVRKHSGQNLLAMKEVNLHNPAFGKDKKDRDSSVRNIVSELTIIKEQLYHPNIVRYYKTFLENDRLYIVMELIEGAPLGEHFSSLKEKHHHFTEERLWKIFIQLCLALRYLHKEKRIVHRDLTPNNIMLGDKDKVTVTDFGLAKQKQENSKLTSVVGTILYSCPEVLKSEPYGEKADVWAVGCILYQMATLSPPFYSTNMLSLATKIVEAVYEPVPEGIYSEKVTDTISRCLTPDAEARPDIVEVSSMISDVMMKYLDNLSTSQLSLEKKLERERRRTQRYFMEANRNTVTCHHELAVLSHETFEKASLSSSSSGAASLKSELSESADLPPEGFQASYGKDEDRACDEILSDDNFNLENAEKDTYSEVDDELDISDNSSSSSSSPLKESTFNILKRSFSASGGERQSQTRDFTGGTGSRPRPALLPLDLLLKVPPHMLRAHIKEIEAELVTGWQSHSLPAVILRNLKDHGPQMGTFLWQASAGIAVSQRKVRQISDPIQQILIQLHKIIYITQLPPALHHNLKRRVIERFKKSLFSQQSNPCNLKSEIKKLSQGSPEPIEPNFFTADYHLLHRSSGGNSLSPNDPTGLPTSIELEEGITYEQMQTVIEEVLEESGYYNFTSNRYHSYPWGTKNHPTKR
Chain of Vascular endothelial growth factor receptor 2 (Homo sapiens) (P35968 whole entry): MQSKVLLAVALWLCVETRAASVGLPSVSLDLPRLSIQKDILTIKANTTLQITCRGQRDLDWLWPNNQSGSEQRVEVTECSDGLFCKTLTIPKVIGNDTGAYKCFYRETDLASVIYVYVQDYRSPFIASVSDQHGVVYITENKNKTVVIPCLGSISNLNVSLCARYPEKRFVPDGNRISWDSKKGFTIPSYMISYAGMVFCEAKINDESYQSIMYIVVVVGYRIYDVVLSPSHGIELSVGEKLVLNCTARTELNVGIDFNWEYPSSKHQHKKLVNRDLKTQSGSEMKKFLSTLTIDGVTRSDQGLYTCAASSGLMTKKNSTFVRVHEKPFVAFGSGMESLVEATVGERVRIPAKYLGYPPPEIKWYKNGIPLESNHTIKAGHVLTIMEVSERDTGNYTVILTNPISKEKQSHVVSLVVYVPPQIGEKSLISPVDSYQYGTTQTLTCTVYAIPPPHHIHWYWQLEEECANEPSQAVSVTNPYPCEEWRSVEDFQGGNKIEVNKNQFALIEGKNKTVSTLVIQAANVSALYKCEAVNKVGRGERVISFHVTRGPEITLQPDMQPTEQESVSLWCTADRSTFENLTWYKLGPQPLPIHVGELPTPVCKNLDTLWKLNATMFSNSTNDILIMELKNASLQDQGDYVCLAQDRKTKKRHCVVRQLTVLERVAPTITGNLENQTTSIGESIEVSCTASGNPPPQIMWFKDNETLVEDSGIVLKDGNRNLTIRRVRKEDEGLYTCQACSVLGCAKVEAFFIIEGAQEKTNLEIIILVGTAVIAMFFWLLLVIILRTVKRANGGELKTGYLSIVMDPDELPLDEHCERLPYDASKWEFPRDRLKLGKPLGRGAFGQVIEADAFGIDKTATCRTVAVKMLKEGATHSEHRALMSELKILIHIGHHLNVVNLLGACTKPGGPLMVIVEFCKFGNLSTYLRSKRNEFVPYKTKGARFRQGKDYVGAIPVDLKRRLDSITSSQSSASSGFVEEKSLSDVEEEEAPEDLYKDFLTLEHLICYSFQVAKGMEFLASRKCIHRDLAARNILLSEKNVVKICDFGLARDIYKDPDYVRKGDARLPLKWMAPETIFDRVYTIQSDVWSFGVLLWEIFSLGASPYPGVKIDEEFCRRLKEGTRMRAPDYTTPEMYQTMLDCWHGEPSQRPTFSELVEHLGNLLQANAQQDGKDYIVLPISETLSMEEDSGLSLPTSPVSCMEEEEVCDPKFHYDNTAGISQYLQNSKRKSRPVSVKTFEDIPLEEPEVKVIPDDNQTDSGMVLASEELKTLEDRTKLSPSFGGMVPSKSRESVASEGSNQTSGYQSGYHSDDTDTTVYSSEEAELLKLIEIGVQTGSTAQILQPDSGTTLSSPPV
Chain of Protein kinase C delta type (Homo sapiens) (Q05655 whole entry, looked up): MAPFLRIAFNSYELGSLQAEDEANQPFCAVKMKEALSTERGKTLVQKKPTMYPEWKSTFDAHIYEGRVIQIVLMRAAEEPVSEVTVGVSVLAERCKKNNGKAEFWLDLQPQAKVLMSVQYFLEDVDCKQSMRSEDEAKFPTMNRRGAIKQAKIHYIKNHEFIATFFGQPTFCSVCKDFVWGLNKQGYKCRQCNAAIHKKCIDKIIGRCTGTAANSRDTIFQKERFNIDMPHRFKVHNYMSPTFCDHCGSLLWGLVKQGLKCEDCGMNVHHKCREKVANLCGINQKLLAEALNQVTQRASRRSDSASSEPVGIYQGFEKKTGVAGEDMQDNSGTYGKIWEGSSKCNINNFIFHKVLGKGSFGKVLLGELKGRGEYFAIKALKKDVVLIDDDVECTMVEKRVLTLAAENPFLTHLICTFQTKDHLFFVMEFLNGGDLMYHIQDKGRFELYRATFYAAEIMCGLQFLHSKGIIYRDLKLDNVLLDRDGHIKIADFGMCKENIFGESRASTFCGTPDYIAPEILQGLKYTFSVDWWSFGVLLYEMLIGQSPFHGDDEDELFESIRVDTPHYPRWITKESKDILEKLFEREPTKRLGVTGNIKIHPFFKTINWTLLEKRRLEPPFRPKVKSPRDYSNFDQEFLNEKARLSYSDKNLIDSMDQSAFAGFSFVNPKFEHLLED
Chain of Cyclin-dependent kinase 16 (Homo sapiens) (Q00536 whole entry): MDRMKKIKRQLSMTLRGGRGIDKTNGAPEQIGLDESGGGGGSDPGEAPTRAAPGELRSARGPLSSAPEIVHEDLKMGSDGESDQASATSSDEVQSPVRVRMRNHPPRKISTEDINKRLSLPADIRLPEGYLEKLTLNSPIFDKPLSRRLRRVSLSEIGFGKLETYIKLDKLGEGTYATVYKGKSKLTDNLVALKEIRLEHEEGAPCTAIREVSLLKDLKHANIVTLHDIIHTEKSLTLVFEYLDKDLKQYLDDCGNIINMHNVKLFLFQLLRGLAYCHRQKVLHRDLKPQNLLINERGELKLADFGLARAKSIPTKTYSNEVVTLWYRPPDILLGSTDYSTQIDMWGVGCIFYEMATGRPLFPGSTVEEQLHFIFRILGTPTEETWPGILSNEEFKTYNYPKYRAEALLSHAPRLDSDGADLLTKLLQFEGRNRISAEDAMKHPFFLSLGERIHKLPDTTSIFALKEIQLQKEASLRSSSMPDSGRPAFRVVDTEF
Chain of Cyclin-dependent kinase-like 3 (Homo sapiens) (Q8IVW4 whole entry, looked up): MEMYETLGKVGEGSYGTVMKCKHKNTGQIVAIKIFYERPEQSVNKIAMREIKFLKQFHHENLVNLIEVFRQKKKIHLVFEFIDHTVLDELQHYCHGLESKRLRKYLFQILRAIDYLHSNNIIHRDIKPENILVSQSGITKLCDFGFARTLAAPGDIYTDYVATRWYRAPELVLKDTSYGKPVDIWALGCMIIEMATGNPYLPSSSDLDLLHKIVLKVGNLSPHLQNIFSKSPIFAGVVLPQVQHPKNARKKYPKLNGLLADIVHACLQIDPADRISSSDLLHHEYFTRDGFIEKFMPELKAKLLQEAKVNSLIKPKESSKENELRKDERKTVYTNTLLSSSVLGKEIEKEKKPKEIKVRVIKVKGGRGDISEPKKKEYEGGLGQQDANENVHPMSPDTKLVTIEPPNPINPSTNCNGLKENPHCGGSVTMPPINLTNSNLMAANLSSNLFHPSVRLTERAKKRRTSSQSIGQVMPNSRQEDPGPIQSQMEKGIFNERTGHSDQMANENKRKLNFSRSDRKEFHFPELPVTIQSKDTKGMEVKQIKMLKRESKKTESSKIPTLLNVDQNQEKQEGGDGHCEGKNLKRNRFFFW

CN([C@@H]1CCc2c(CC(=O)O)c3cc(S(C)(=O)=O)ccc3n2C1)S(=O)(=O)c1ccc(F)cc1
inactive: inhibition [1] 0.539% | residual activity [2] 89% | residual activity [3] 100% | inhibition [4] -2.39% | inhibition [5] 2.6% | residual activity [6] 100% | residual activity [7] 86% | residual activity [8] 91% | residual activity [9] 79% | residual activity [10] 85% | residual activity [11] 100% | residual activity [12] 93% | residual activity [13] 100% | residual activity [14] 100% | residual activity [15] 100% | residual activity [16] 84% | residual activity [17] 84% | residual activity [18] 100% | residual activity [19] 100% | residual activity [20] 100% | residual activity [21] 100% | residual activity [22] 100% | residual activity [23] 83% | residual activity [24] 100% | residual activity [25] 95% | residual activity [26] 95% | inhibition [27] 5.16% | residual activity [28] 83% | residual activity [29] 91% | residual activity [30] 88% | residual activity [31] 91% | residual activity [32] 98% | residual activity [33] 95% | residual activity [34] 100% | residual activity [35] 100% | residual activity [36] 95% | residual activity [37] 100% | residual activity [38] 100% | residual activity [39] 100% | residual activity [40] 85% | residual activity [41] 90% | residual activity [42] 90% | residual activity [43] 100% | residual activity [44] 85% | residual activity [45] 100%

CN([C@@H]1CCc2c(CC(=O)O)c3ccccc3n2C1)S(=O)(=O)c1ccc(F)cc1 [MK-7246]
inactive: inhibition [1] -6.38% | residual activity [2] 100% | residual activity [3] 100% | inhibition [4] 12.7% | inhibition [5] 35.6% | residual activity [6] 85% | residual activity [7] 97% | residual activity [8] 85% | residual activity [9] 87% | residual activity [10] 85% | residual activity [11] 100% | residual activity [12] 100% | residual activity [13] 100% | residual activity [14] 96% | residual activity [15] 94% | residual activity [16] 99% | residual activity [17] 98% | residual activity [18] 100% | residual activity [19] 100% | residual activity [20] 100% | residual activity [21] 100% | residual activity [22] 100% | residual activity [23] 88% | residual activity [24] 100% | residual activity [25] 100% | residual activity [26] 93% | inhibition [27] 9.29% | residual activity [28] 100% | residual activity [29] 93% | residual activity [30] 100% | residual activity [31] 100% | residual activity [32] 100% | residual activity [33] 93% | residual activity [34] 92% | residual activity [35] 100% | residual activity [36] 96% | residual activity [37] 100% | residual activity [38] 100% | residual activity [39] 100% | residual activity [40] 100% | residual activity [41] 87% | residual activity [42] 92% | residual activity [43] 100% | residual activity [44] 82% | residual activity [45] 100%
